Measured values taken from patent US20210254056A1, “IDENTIFICATION AND TARGETED MODULATION OF GENE SIGNALING NETWORKS” (CAMP4 THERAPEUTICS CORPORATION, priority 2017, published 2021).

Tested on: hepatocytes
Experiment: RNA-seq of hepatocytes treated with Phase III failure compounds
Method: RNA-seq was performed to determine the effects of the compounds on hepatocytes.
Significance was determined by the criteria of FPKM≥0.5, a log 2(fold-change)≥1, and a […].

Cn1cnc2c(F)c(Nc3ccc(Br)cc3Cl)c(C(=O)NOCCO)cc21 [Selumetinib]
RNA-seq results, CYP2B6 expression: 0.38 | RNA-seq results, CYP2C19 expression: 0.76 | RNA-seq results, CYP2D6 expression: 0.03 | RNA-seq results, CYP3A4 expression: 0.08 | RNA-seq results, CYP7B1 expression: −0.15 | RNA-seq results, CYP39A1 expression: −0.27 | RNA-seq results: CYP2B6 expression: −0.08 | RNA-seq results: CYP2C19 expression: 0.1 | RNA-seq results: CYP2D6 expression: 0.16 | RNA-seq results: CYP3A4 expression: 0.11 | RNA-seq results: CYP7B1 expression: −0.3 | RNA-seq results: CYP39A1 expression: 0.08 | RNA-seq results: A1BG expression (gene A1BG, hepatocytes): 0.00 | RNA-seq results: AGTR1 expression (gene AGTR1, hepatocytes): −0.55 | RNA-seq results: AGXT expression (gene AGXT, hepatocytes): 0.22 | RNA-seq results: AHI1 expression (gene AHI1, hepatocytes): 0.01 | RNA-seq results: AMPD3 expression (gene AMPD3, hepatocytes): 0.22 | RNA-seq results: AMT expression (gene AMT, hepatocytes): 0.29 | RNA-seq results: ANGPTL3 expression (gene ANGPTL3, hepatocytes): −0.67 | RNA-seq results: ANKS4B expression (gene ANKS4B, hepatocytes): −0.06 | RNA-seq results: ANKS6 expression (gene ANKS6, hepatocytes): −0.02 | RNA-seq results: ANPEP expression (gene ANPEP, hepatocytes): 0.04 | RNA-seq results: AOC2 expression (gene AOC2, hepatocytes): 0.28 | RNA-seq results: APOA2 expression (gene APOA2, hepatocytes): −0.45 | RNA-seq results: APOA5 expression (gene APOA5, hepatocytes): 0.13 | RNA-seq results: APOB expression (gene APOB, hepatocytes): −0.10 | RNA-seq results: COG5 expression (gene COG5, hepatocytes): −0.14 | RNA-seq results: COG6 expression (gene COG6, hepatocytes): 0.1 | RNA-seq results: COL1A1 expression (gene COL1A1, hepatocytes): 0.41 | RNA-seq results: COX6A1 expression (gene COX6A1, hepatocytes): 0.02 | RNA-seq results: CP expression (gene CP, hepatocytes): 0.26 | RNA-seq results: CPS1 expression (gene CPS1, hepatocytes): 0.52 | RNA-seq results: CPT1A expression (gene CPT1A, hepatocytes): 0.19 | RNA-seq results: CPT2 expression (gene CPT2, hepatocytes): −0.2 | RNA-seq results: CROT expression (gene CROT, hepatocytes): −0.4 | RNA-seq results: CSPP1 expression (gene CSPP1, hepatocytes): −0.14 | RNA-seq results: CTC1 expression (gene CTC1, hepatocytes): 0.03 | RNA-seq results: CTDSP2 expression (gene CTDSP2, hepatocytes): −0.14 | RNA-seq results: CTH expression (gene CTH, hepatocytes): 0.67 | RNA-seq results: CTNS expression (gene CTNS, hepatocytes): 0.69 | RNA-seq results: CTSF expression (gene CTSF, hepatocytes): 0.19 | RNA-seq results: CTSK expression (gene CTSK, hepatocytes): 0.08 | RNA-seq results: CYB5A expression (gene CYB5A, hepatocytes): −0.09 | RNA-seq results: CYB5R3 expression (gene CYB5R3, hepatocytes): 0.1 | RNA-seq results: CYP27A1 expression (gene CYP27A1, hepatocytes): 0.14 | RNA-seq results: DAO expression (gene DAO, hepatocytes): −0.11 | RNA-seq results: DBT expression (gene DBT, hepatocytes): −0.16 | RNA-seq results: DCDC2 expression (gene DCDC2, hepatocytes): −1.04 | RNA-seq results: DCXR expression (gene DCXR, hepatocytes): 0.01 | RNA-seq results: FABP1 expression (gene FABP1, hepatocytes): 0.06 | RNA-seq results: FADD expression (gene FADD, hepatocytes): −0.08 | RNA-seq results: FAM111A expression (gene FAM111A, hepatocytes): 0.12 | RNA-seq results: FAM111B expression (gene FAM111B, hepatocytes): −1.27 | RNA-seq results: FAN1 expression (gene FAN1, hepatocytes): −0.37 | RNA-seq results: FARS2 expression (gene FARS2, hepatocytes): −0.21 | RNA-seq results: FASLG expression (gene FASLG, hepatocytes): −0.55 | RNA-seq results: FGA expression (gene FGA, hepatocytes): 0.07 | RNA-seq results: FGD1 expression (gene FGD1, hepatocytes): −0.4 | RNA-seq results: FGFR2 expression (gene FGFR2, hepatocytes): −0.97 | RNA-seq results: FIG4 expression (gene FIG4, hepatocytes): 0.29 | RNA-seq results: FIS1 expression (gene FIS1, hepatocytes): −0.06 | RNA-seq results: FTCD expression (gene FTCD, hepatocytes): 0.18 | RNA-seq results: FTH1 expression (gene FTH1, hepatocytes): 0.45 | RNA-seq results: FUCA1 expression (gene FUCA1, hepatocytes): 0.02 | RNA-seq results: FXN expression (gene FXN, hepatocytes): −0.33 | RNA-seq results: G6PC3 expression (gene G6PC3, hepatocytes): −0.17 | RNA-seq results: G6PC expression (gene G6PC, hepatocytes): 1.05 | RNA-seq results: G6PD expression (gene G6PD, hepatocytes): 0.7 | RNA-seq results: GALK1 expression (gene GALK1, hepatocytes): 0.05 | RNA-seq results: GALK2 expression (gene GALK2, hepatocytes): 0.08 | RNA-seq results: GALT expression (gene GALT, hepatocytes): 0.37 | RNA-seq results: GATA6 expression (gene GATA6, hepatocytes): −0.01 | RNA-seq results: GATM expression (gene GATM, hepatocytes): −0.21 | RNA-seq results: GBA expression (gene GBA, hepatocytes): 0.33 | RNA-seq results: GBE1 expression (gene GBE1, hepatocytes): 0.06 | RNA-seq results: GCH1 expression (gene GCH1, hepatocytes): 0.02 | RNA-seq results: GCKR expression (gene GCKR, hepatocytes): 0.43 | RNA-seq results: GCLC expression (gene GCLC, hepatocytes): 0.07 | RNA-seq results: GOSH expression (gene GOSH, hepatocytes): −0.26 | RNA-seq results: RRM2B (gene RRM2B, hepatocytes): −0.30 | RNA-seq results: RSAD1 (gene RSAD1, hepatocytes): −0.06 | RNA-seq results: SAMHD1 (gene SAMHD1, hepatocytes): −0.29 | RNA-seq results: SC5D (gene SC5D, hepatocytes): −0.23 | RNA-seq results: SCARB1 (gene SCARB1, hepatocytes): 0.08 | RNA-seq results: SCN9A (gene SCN9A, hepatocytes): 0.14 | RNA-seq results: SDCCAG8 (gene SDCCAG8, hepatocytes): −0.25 | RNA-seq results: SEPN1 (gene SEPN1, hepatocytes): −0.10 | RNA-seq results: SERAC1 (gene SERAC1, hepatocytes): −0.29 | RNA-seq results: SERPINA1 (gene SERPINA1, hepatocytes): 0.01 | RNA-seq results: SERPING1 (gene SERPING1, hepatocytes): −0.11 | RNA-seq results: SERPINI1 (gene SERPINI1, hepatocytes): −0.36 | RNA-seq results: SETBP1 (gene SETBP1, hepatocytes): 0.22 | RNA-seq results: SFXN4 (gene SFXN4, hepatocytes): −0.33 | RNA-seq results: SLC10A1 (gene SLC10A1, hepatocytes): 0.00 | RNA-seq results: SLC10A3 (gene SLC10A3, hepatocytes): 0.23 | RNA-seq results: SLC10A5 (gene SLC10A5, hepatocytes): 0.63 | RNA-seq results: SLC10A7 (gene SLC10A7, hepatocytes): −0.35 | RNA-seq results: SLC11A2 (gene SLC11A2, hepatocytes): −0.26 | RNA-seq results: SLC19A1 (gene SLC19A1, hepatocytes): −0.42 | RNA-seq results: SLC19A2 (gene SLC19A2, hepatocytes): 0.22 | RNA-seq results: SLC19A3 (gene SLC19A3, hepatocytes): 0.00 | RNA-seq results: SLC22A1 (gene SLC22A1, hepatocytes): −0.07 | RNA-seq results: SLC22A5 (gene SLC22A5, hepatocytes): 0.32 | RNA-seq results: SLC25A1 (gene SLC25A1, hepatocytes): 0.11 | RNA-seq results: SLC25A10 (gene SLC25A10, hepatocytes): −0.12 | RNA-seq results: SLC25A12 (gene SLC25A12, hepatocytes): −0.11 | RNA-seq results: SLC25A13 (gene SLC25A13, hepatocytes): −0.15 | RNA-seq results: SLC25A15 (gene SLC25A15, hepatocytes): −0.21 | RNA-seq results: SLC25A19 (gene SLC25A19, hepatocytes): −0.35 | RNA-seq results: SLC25A20 (gene SLC25A20, hepatocytes): −0.28 | RNA-seq results: SLC25A29 (gene SLC25A29, hepatocytes): 0.25 | RNA-seq results: SLC25A32 (gene SLC25A32, hepatocytes): −0.44
